# Assays:
# LN229 and HCT116 cells = assay: Cancer cell viability; format: cell-based, human
# Aβ42 = Aβ42 ELISA of conditioned media, HEK-APP695WT cells; format: cell-based, human; details: 72 h
# Experimental: iPSC‐Ns or HEK‐APP695WT were treated with drugs, and secreted Aβ42 peptides inculture soup were quantified using the Human Amyloid β1‐42 human ELISA kit (Thermo Fisher) according to the manufacturer's protocol. Mouse brain extraction was performed as previously described, with minor modifications. Mouse brain tissues were homogenized at a 1:10 weight‐to‐volume ratio in Tris‐buffered saline (TBS; 50 mM Tris, pH 7.4, 150 mM NaCl) supplemented with 2 mM EDTA and protease inhibitors. TBS‐homogenized brains were centrifuged for 1 h at 16 000 g. To extract total Aβ, including insoluble fractions, formic acid was added to a final concentration of 70%, and the samples were thoroughly mixed by pipetting. […] Prior to quantification, formic acid‐containing samples were neutralized with 1 M Tris base (pH 11). Aβ40 and Aβ42 levels were measured using human‐specific ELISA kits (Invitrogen) and normalized to total protein concentrations determined by the BCA assay (Thermo Scientific). For Aβ quantification in 3D organoids, 3D organoids’ processing and ELISA analysis were performed with minor modifications from previously described protocols. […] Aβ42 levels in both fractions were measured using human‐specific ELISA kits (Thermo Fisher) according to the manufacturer's instructions. […] Aβ levels were normalized to total protein concentration determined by BCA assay.
# HEK‐APP695WT cells = assay: CellTiter-Glo cell viability, HEK cells; format: cell-based, human; details: 10 µM, 72 h
# APP = APP (Homo sapiens, UniProt P05067); assay: Western blot of APP in HEK-APP695WT cells; format: cell-based; set-up: expressed in transfected cells; details: 72 h
# [1] = Tolerability and body weight in 5xFAD mice; format: in vivo
# Description: Female 5xFAD transgenic mice (9–10 weeks old) were used to evaluate the efficacy of 0152 in reducing amyloid pathology. Mice were housed under Indiana University standard laboratory conditions. For intraperitoneal (IP) administration, mice received either vehicle or 0152 (indicated concentrations) in a formulation consisting of 20% DMSO, 20% Cremophor EL, and 60% PBS. For oral (PO) administration, mice received either vehicle or 0152 (indicated concentrations) in a formulation consisting of 10% NMP (N‐methyl‐2‐pyrrolidone), 10% PG (Propylene Glycol), 5% Solutol HS‐15, and 75% Captisol (10% w/v in RO water). At the end of the treatment period, mice were sacrificed, and their brains were collected for histological analysis. Brain tissues were fixed in 10% Formalin, embedded in paraffin, and sectioned. Thioflavin S staining was performed to visualize β‐sheet‐rich amyloid plaques, and immunohistochemistry was conducted using the 6E10 monoclonal antibody to detect Aβ plagues. Body weights were recorded daily throughout the study.
# [2] = system: AD iPSC‐derived organoids; assay: AD iPSC-derived 3D brain organoids; format: cell-based, human
# Experimental: For generating brain 3D organoids, Lancaster's protocol and Paşca's protocol were used with minor modifications. In brief, 9000 cells/ 100 µL of each well were seeded in Ultra‐low attachment 96 well U‐bottom plates (Sbio) supplemented with 10 µM of ROCK inhibitor. The next day, 100 µL of mTeSR1 was added, and the cells were cultured as embryonic bodies (EB) for 5 days at 37°C in 5% CO2 incubator. When the size of EB reached 400–600 µm, EBs were transferred into ultra‐low binding 24 well (Corning) with 200 µL of neural differentiation medium (Neurobasal medium (Gibco), 2% B27, 1X Glutamax) with 2 µg/mL of Doxycycline and incubated for 5 days at 37°C in 5% CO2 incubator until the size of EB was 700–800 µm. During this step, one EB was in one well, and the culture medium was changed every day with fresh neural differentiation medium with Doxycycline. At day 10, the EB was embedded into 15 µL of 100% Matrigel (Corning), and the embedded EBs were cultured in neural differentiation medium without Doxycycline in 6 well ultra‐low binding plates (Corning). […]
# iPSC‐Ns or HEK‐APP695WT were treated with drugs, and secreted Aβ42 peptides inculture soup were quantified using the Human Amyloid β1‐42 human ELISA kit (Thermo Fisher) according to the manufacturer's protocol. […] Prior to quantification, formic acid‐containing samples were neutralized with 1 M Tris base (pH 11). Aβ40 and Aβ42 levels were measured using human‐specific ELISA kits (Invitrogen) and normalized to total protein concentrations determined by the BCA assay (Thermo Scientific). For Aβ quantification in 3D organoids, 3D organoids’ processing and ELISA analysis were performed with minor modifications from previously described protocols. […] Aβ42 levels in both fractions were measured using human‐specific ELISA kits (Thermo Fisher) according to the manufacturer's instructions. […] Aβ levels were normalized to total protein concentration determined by BCA assay. […]
# Sequence of APP (P05067 18-695 isoform P05067-4 limits assumed): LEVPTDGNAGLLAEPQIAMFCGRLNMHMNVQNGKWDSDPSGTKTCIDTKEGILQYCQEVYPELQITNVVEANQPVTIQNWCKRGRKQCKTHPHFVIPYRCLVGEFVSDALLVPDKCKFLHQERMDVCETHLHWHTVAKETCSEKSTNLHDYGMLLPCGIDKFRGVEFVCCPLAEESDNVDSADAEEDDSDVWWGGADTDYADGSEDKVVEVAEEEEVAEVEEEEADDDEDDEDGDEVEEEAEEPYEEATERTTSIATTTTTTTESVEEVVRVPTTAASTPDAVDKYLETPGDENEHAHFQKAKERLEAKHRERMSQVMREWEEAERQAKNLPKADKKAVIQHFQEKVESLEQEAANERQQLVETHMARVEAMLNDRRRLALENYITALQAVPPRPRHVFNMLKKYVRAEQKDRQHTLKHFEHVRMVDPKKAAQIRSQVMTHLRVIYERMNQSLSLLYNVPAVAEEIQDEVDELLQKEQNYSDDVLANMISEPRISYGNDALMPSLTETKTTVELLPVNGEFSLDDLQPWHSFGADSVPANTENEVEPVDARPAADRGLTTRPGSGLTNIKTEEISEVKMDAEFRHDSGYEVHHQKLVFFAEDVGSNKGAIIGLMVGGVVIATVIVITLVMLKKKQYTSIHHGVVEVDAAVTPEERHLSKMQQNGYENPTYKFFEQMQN
Compound,Cancer cell growth (LN229 and HCT116 cells),Aβ42 in conditioned media (Aβ42; 10 µM),Extracellular Aβ42 (ELISA) (Aβ42; increasing concentrations),Cell viability (CellTiter-Glo) (HEK‐APP695WT cells),"Intracellular APP (western blot) (APP; HEK-APP695WT cells, increasing concentrations)","Effects on APP and Aβ42 in CAPRIN1 KO cells (APP; sgCAPRIN1 HEK-APP695WT cells, 10 µM)","Tolerability, body weight ([1]; 80 mg/kg IP twice per day, 30 days)","Body weight ([1]; 80 mg/kg oral gavage twice daily, 30 days)","Tolerability (lethargy, ataxia, paralysis, seizures, weight loss) ([1]; 100 mg/kg IP daily, 24 days)","APP/Aβ42 immunoreactivity in organoids ([2]; AG27606 and UKBi011A organoids, 10 µM)","Aβ42 in organoids by ELISA ([2]; AG27606 organoids, RIPA-soluble and formic acid-solubilized fractions)","CAPRIN1–APP colocalization in organoids ([2]; AG27606 organoids, treated for three months)"
N#Cc1cccc(NC(=O)Nc2nc3ccc(C(=O)N4CCOCC4)cc3s2)c1 [compound 0043],no effects,most potent in reducing Aβ42,reduced intracellular APP and extracellular Aβ42 levels in a dose‐dependent manner,without inducing cytotoxicity,reduced intracellular APP,abolished,,,,,,
COc1cccc(NC(=O)Nc2nc3ccc(C(=O)N4CCOCC4)cc3s2)c1 [compound 0152],,,,,,,well tolerated with no weight loss,no observed weight loss,tolerated treatment well,reduced APP/Aβ42 levels,significantly reduced Aβ42 levels,increased CAPRIN1–APP colocalization

# — PMC13534789, “Molecular Glue Degraders Enhance CAPRIN1‐Dependent Lysosomal Degradation of APP and Reduce Amyloid β in Alzheimer's Disease” (Advanced Science, 2026)
